In the NIST ThermoML archive (doi:10.1016/j.fluid.2012.11.039):
Numbers after ± are expanded uncertainties.

Columns and labels:
[1] = xn = mol fraction of the nth substance listed; settings: Liquid, Vibrating tube method
[2] = Liquid, Vibrating tube method

CCCCCCCCCCCCCCCCCC [octadecane] + CCCCCCCCCC
[1]
Settings	mass density [kg/m3]
372.7 K, 100 kPa, x1 = 0.25	689.9 ± 0.3
372.7 K, 1010 kPa, x1 = 0.25	691 ± 0.4
372.7 K, 2010 kPa, x1 = 0.25	692.2 ± 0.4
372.7 K, 3020 kPa, x1 = 0.25	693.3 ± 0.4
372.7 K, 4010 kPa, x1 = 0.25	694.4 ± 0.4
372.7 K, 5010 kPa, x1 = 0.25	695.5 ± 0.4
372.7 K, 6010 kPa, x1 = 0.25	696.6 ± 0.4
372.7 K, 7010 kPa, x1 = 0.25	697.7 ± 0.4
372.7 K, 8010 kPa, x1 = 0.25	698.7 ± 0.4
372.7 K, 9020 kPa, x1 = 0.25	699.8 ± 0.4
372.7 K, 10010 kPa, x1 = 0.25	700.8 ± 0.4
372.8 K, 100 kPa, x1 = 0.5	705.7 ± 0.4
372.8 K, 100 kPa, x1 = 0.75	717.8 ± 0.4
372.8 K, 1020 kPa, x1 = 0.5	706.8 ± 0.4
372.8 K, 1050 kPa, x1 = 0.75	718.9 ± 0.4
372.8 K, 2020 kPa, x1 = 0.5	707.8 ± 0.4
372.8 K, 2020 kPa, x1 = 0.75	719.9 ± 0.4
372.8 K, 2940 kPa, x1 = 0.5	708.7 ± 0.4
372.8 K, 3000 kPa, x1 = 0.75	720.8 ± 0.4
372.8 K, 4000 kPa, x1 = 0.75	721.8 ± 0.4
372.8 K, 4010 kPa, x1 = 0.5	709.9 ± 0.4
372.8 K, 5010 kPa, x1 = 0.5	710.9 ± 0.4
372.8 K, 5010 kPa, x1 = 0.75	722.8 ± 0.4
372.8 K, 6000 kPa, x1 = 0.5	711.9 ± 0.4
372.8 K, 6000 kPa, x1 = 0.75	723.7 ± 0.4
372.8 K, 7000 kPa, x1 = 0.5	712.9 ± 0.4
372.8 K, 7010 kPa, x1 = 0.75	724.6 ± 0.4
372.8 K, 8000 kPa, x1 = 0.5	713.9 ± 0.4
372.8 K, 8000 kPa, x1 = 0.75	725.5 ± 0.4
372.8 K, 8990 kPa, x1 = 0.75	726.4 ± 0.4
372.8 K, 9010 kPa, x1 = 0.5	714.8 ± 0.4
372.8 K, 10010 kPa, x1 = 0.5	715.8 ± 0.4
372.8 K, 10010 kPa, x1 = 0.75	727.4 ± 0.4
372.9 K, 1010 kPa, x1 = 1	728.2 ± 0.4
372.9 K, 2010 kPa, x1 = 1	729.2 ± 0.4
372.9 K, 3020 kPa, x1 = 1	730.2 ± 0.4
372.9 K, 4000 kPa, x1 = 1	731.1 ± 0.4
372.9 K, 5000 kPa, x1 = 1	732 ± 0.4
372.9 K, 6020 kPa, x1 = 1	732.9 ± 0.4
372.9 K, 7010 kPa, x1 = 1	733.8 ± 0.4
372.9 K, 8000 kPa, x1 = 1	734.7 ± 0.4
372.9 K, 8990 kPa, x1 = 1	735.6 ± 0.4
372.9 K, 9980 kPa, x1 = 1	736.4 ± 0.4

CCCCCCCCCC [decane]
[2], 373.2 K
Settings	mass density [kg/m3]
100 kPa	667.1 ± 0.3
1000 kPa	668.4 ± 0.4
2000 kPa	669.6 ± 0.4
3000 kPa	670.9 ± 0.4
4000 kPa	672.1 ± 0.4
5000 kPa	673.4 ± 0.4
6000 kPa	674.5 ± 0.4
7000 kPa	675.7 ± 0.4
8000 kPa	676.9 ± 0.4
9000 kPa	678.1 ± 0.4
10000 kPa	679.2 ± 0.4

CCCCCCCCCCCCCCCCCC [octadecane]
[2], 372.9 K
Settings	mass density [kg/m3]
1010 kPa	728.2 ± 0.4
2010 kPa	729.2 ± 0.4
3020 kPa	730.2 ± 0.4
4000 kPa	731.1 ± 0.4
5000 kPa	732 ± 0.4
6020 kPa	732.9 ± 0.4
7010 kPa	733.8 ± 0.4
8000 kPa	734.7 ± 0.4
8990 kPa	735.6 ± 0.4
9980 kPa	736.4 ± 0.4

CCCCCCCCCC [decane] + CCCCCCCCCCCCCCCCCC
[1], 373.2 K, x2 = 0
Settings	mass density [kg/m3]
100 kPa	667.1 ± 0.3
1000 kPa	668.4 ± 0.4
2000 kPa	669.6 ± 0.4
3000 kPa	670.9 ± 0.4
4000 kPa	672.1 ± 0.4
5000 kPa	673.4 ± 0.4
6000 kPa	674.5 ± 0.4
7000 kPa	675.7 ± 0.4
8000 kPa	676.9 ± 0.4
9000 kPa	678.1 ± 0.4
10000 kPa	679.2 ± 0.4
